Measured values as given in US20080207592A1, “Novel 1,4-benzothiazepine-1,1-dioxide derivative having improved properties, method for the production thereof, medicaments containing said compound, and use thereof” (SANOFI-AVENTIS DEUTSCHLAND GMBH, priority 2005, published 2008).

Molecular target: T1, recombinantly expressed human sodium-dependent ileal bile acid transporter (IBAT) (Homo sapiens, UniProt Q12908)
T1 construct: Bases 599 to 1645 correspond to the complete coding region of the human IBAT; expressed in transfected cells
T1 sequence (Q12908 1-348): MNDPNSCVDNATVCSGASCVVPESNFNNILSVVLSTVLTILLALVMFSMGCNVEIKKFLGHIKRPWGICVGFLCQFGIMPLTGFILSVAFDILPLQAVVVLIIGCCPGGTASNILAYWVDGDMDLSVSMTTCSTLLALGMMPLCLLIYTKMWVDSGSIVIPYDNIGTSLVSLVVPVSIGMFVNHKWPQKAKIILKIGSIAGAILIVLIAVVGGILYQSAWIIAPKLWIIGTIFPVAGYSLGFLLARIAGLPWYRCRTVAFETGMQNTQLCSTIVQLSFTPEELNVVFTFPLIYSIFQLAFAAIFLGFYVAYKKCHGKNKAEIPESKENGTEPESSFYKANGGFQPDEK
Assay: in vitro IBAT inhibition test ([3H]-taurocholic acid uptake into CHO-hIBAT cells)
Format: cell-based
Settings: for IC50: CHO-hIBAT cells, taurocholic acid 10 μM, 60 min at room temperature
Method: Biological testing of the compound A according to the invention was carried out using the in vitro IBAT inhibition test. This test examines the effect of the compound according to the invention on the transport activity of the recombinantly expressed human sodium-dependent ileal bile acid transporter (IBAT=ileal Na^+/bile acid contransporter, ASBT=apical sodium-dependent bile acid transporter, SLC10A2=solute carrier family 10, member 2).
The cDNA (complementary deoxyribonucleic acid) of human IBAT was cloned using standard methods of molecular biology as described, for example, in Molecular Cloning: A Laboratory Manual, by Joseph Sambrook and David Russell, and introduced into the pcDNA1 vector from Invitrogen. […] Bases 599 to 1645 correspond to the complete coding region of the human IBAT.
The expression vector for the human IBAT was introduced by means of stable transfection into CHO (Chinese hamster ovary) cells. To select single cell clones, 400 μg/ml of geneticin was added to the cell culture medium (Ham's F12 medium supplemented with 10% fetal calf serum, 100 units/ml of penicillin, 100 units/ml of streptomycin). The functionality of the single cell clones resulting from the selection was tested via their uptake activity for radioactively labeled taurocholic acid ([^3H]-TCA). […]
CHO-hIBAT cells were sown at a concentration of 40 000 cells per well in cell culture medium in poly-D-lysine-coated 96-well plates and cultivated for 24 h. […] Finally, 100 μl of scintillation fluid were added to each well, and the radioactivity taken up into the cells was determined in a MicroBeta scintillation microplate reader from Wallac.
The half-maximal inhibitory effect of the test compound (IC50 value, inhibitory concentration 50) was determined as follows:
1. […] This is the value measured in the absence of substance, measured in sodium-comprising transport assay buffer.
2. […] This is the value measured in the absence of substance, measured in sodium-free transport assay buffer. […]

| IC50 | activity compared to comparative example from EP 1 169 313 (higher) (relative to compound 11a of EP 1 169 313, from IC50 (human IBAT)) | SMILES |
| --- | --- | --- |
| 0.155 µM | 206% | CCCCC1(CCCC)CS(=O)(=O)c2ccc(N(C)C)cc2[C@@H](c2cccc(NC(=O)NC[C@H](O)[C@@H](O)[C@H](O)[C@H](O)CO)c2)N1 [Example A] |
| 0.319 µM |  | CCCCC1(CCCC)CS(=O)(=O)c2ccc(N(C)C)cc2[C@@H](c2cccc(NC(=O)[C@H](O)[C@@H](O)[C@H](O)[C@H](O)CO)c2)N1 [compound 11a, reference compound] |
